Here are results for 1 molecule from patent US9814720B2, “Compositions and methods of inhibiting IL-17 expression of neutrophils” (priority 2014, dated 2017).

For one test, the system named is p-STAT3. In words: Western blot of total cell lysate of IL-6/23-stimulated human neutrophils. The class given is cell-based. The note with it: IL-6/23 1 h, FIG. 5A. The procedure:
(§1) Neutrophils were isolated from peripheral blood of healthy donors. Peripheral blood was incubated in 3% Dextran, and neutrophils isolated by Ficoll gradient centrifugation (Fisher Scientific), with neutrophil purity determined by staining with Wright-Giemsa.
(§2) Murine or human neutrophils were suspended at a density of 10^6 cells/ml and incubated with […] of recombinant mouse or human IL-6 and 2 μg/ml IL-23 in RPMI, and the cells were maintained for 1-3 h at 37° C. in 5% CO2. Various inhibitors were used for assessing STAT3 activation. For STAT3, neutrophils were treated with either the STAT3-SH2 inhibitor, Stattic (20 μM) obtained from Tocris, or the JAK-1, 2 inhibitor, INC424, (aka Ruxolitinib; 20 μM (Selleck BioChem)). For the determination of RORγt-dependent signaling, SR1001 (20 μM; Sigma) was used, which inhibits RORγt binding to the IL-17 promoter site. All inhibitors were added to neutrophils 2 h prior to recombinant IL-6 and IL-23 stimulation.
Neutrophils collected from primed or naïve C57BL/6 mice or unstimulated murine or human neutrophils were incubated with recombinant IL-6 and IL-23 for 60 min. After this time, cells were washed in PBS and lysed in ice-cold 1× lysis buffer (Cell Signaling Technology, Beverly, Mass.). Total protein was quantified using the BCA method, denatured with 2× Laemmli buffer (Sigma) and heated to 95° C. for 5 minutes. Nuclear extracts of the cells were prepared with the Pierce nuclear extract kit per the manufacturer's directions (Pierce). Ten μg of total protein was analyzed on a 12% SDS polyacrylamide gel, and transferred to nitrocellulose. Blots were probed with the following primary antibodies: Total STAT3 (R&D), p-STAT3 (R&D), RORγt (eBioscience), TATA box binding protein (TBP (Abcam)), and β-actin (Cell Signaling Technology). HRP-conjugated secondary antibodies were used (Santa Cruz Biotechnologies), and western blots developed with Supersignal West Femto Maximum Sensitivity Substrate (Pierce).
(A western blot detects proteins with antibodies after separation by electrophoresis.)

The next test relates to IL-17A. In words: IL-17A protein and Il17a gene expression in IL-6/23-stimulated human neutrophils. The class given is cell-based. The procedure: as §1
IL-17A protein production was quantified by 2-site ELISA, according to the manufacturer's directions (R&D Biosciences).
as §2
Neutrophil and corneal cell RNA was extracted using the RNeasy mini kit according to the manufacturer's directions (Qiagen, Valencia, Calif.). […]
The SYBR green system (Applied Biosystems, Carlsbad, Calif.) was utilized for quantitative PCR (qPCR) using ABI Biosystems. […]

For another test, the system named is IL-17RC. In words: IL-17RC gene expression by qPCR in IL-6/23-stimulated murine neutrophils. The class given is cell-based. The note with it: IL-6/23 1 h, FIG. 6A.
Source text: Total bone marrow-derived cells were isolated from mouse femurs and tibias by flushing with RPMI and an 18-gauge needle. Erythrocytes were lysed with 1× lysis buffer (eBioscience), and bone marrow cells were separated on a Percoll (Fisher) gradient by density centrifugation (52%, 69%, and 78%). Cells at the 69-78% interface were harvested, and neutrophil purity (>98%) confirmed by flow cytometry and Wright-Giemsa staining.
as §2
Neutrophil and corneal cell RNA was extracted using the RNeasy mini kit according to the manufacturer's directions (Qiagen, Valencia, Calif.). The quality of RNA was checked by spectrophotometry, and only samples with a 260/280 ratio of 2.0 were used to generate cDNA. The SuperScript First Strand synthesis system (Invitrogen) was used to generate cDNA according to the manufacturer's directions.
The SYBR green system (Applied Biosystems, Carlsbad, Calif.) was utilized for quantitative PCR (qPCR) using ABI Biosystems. PCR products were then run on a 1% agarose gel, and visualized using ethidium bromide. PCR products were compared to Actb (encoding the β-actin gene) or GAPDH as the controls for gel loading.

In a further test the test system is A. fumigatus hyphae. In words: In vitro fungal killing assay (hyphal coincubation) with human neutrophils. The class given is cell-based, Aspergillus fumigatus. The note with it: IL-6/23-stimulated, inhibitor 20 μM, FIG. 6F. The source says:
Aspergillus strains—For cornea infections and in vitro fungal killing assays, an RFP expressing strain of A. fumigatus (Af-dsRed) was used. This strain is gpdA promoter driven to constitutively express monomeric dsRed. For subcutaneous “priming” injections, heat-killed, swollen conidia Aspergillus fumigatus strain Af-BP was used. For the Aspergillus hyphal extract used in ROS assay, A. fumigatus strain Af-BP hyphae were pulverized in liquid nitrogen, filtered through a 30 μm pre-separation filter (Miltenyi Biotec) and protein measured by the BCA method (Pierce). Aspergillus hyphal extracts (AspHE) were stored at −20° C. and used at a final concentration of 1 mg/ml.
A hyphal coincubation assay was used to study the ability of murine and human neutrophils to inhibit A. fumigatus hyphal growth as described. Briefly, 12,500 A. fumigatus dsRed expressing conidia (strain Af-dsRed) per 200 μl Sabouraud dextrose media were added to wells of black-walled 96 well plates with an optically clear bottom (CoStar 3720). After 6 h, the conidia had germinated and the hyphae became adherent to the wells, at which time the medium was removed.
Murine and human neutrophils were incubated with p-STAT3 (20 μM Stattic or 20 μM INC424) or RORγt inhibitors (20 μM SR1001) for 2 h. Then the cells were stimulated with […] of rIL-6 and 2 μg/ml of rIL-23 for 3 h, washed, and 2×10^5 bone marrow-derived murine neutrophils or 10^5 human peripheral blood neutrophils, with or without recombinant IL-17A, were added to each well with growing hyphae. RPMI media was used as positive control (unimpaired growth), and PBS was used as a negative control (no growth (data not shown)). After 16 h the wells were washed with PBS and the dsRed fungal mass was quantified in a 96-well fluorometer at 550/600 nm excitation/emission filter (Synergy HT, Biotek).

With `O=[N+]([O-])c1ccc2c(c1)S(=O)(=O)C=C2` [Stattic], in the test with p-STAT3, the “RORγt expression (western blot)” value is “not altered”. The “total STAT3 expression (western blot)” value in the test on p-STAT3 was “not altered”. Further, in the test on p-STAT3 (inhibitor 20 μM), the “p-STAT3 (western blot)” value is “inhibited”. The IL-17A protein result in the test on IL-17A (FIG. 5D) is on record as “ablated”. Further, the Il17a gene expression entry with IL-17A (FIG. 5E) was “ablated”. In addition, the IL-17RC expression result in the test on IL-17RC is on record as “did not inhibit”. Besides, the fluorescent fungal mass result in the test on A. fumigatus hyphae (plus rhIL-17A) is “decreased fungal mass”; in the test with A. fumigatus hyphae (without rhIL-17A) it was “no increase in ROS (FIG. 6E) or decrease in fluorescent fungal mass”.
